The results in this text go back to patent US20070185093A1, “Benzotriazepine derivatives and their use as gastrin and cholecystokinin receptor ligands” (priority 2003, published 2007).

Molecules are shown by their SMILES.

The assay has as its target T1, human gastrin (CCK2) receptors (Homo sapiens, UniProt P32239).
T1 construct: amplified by PCR (polymerase chain reaction) from the start codon to the stop codon; expressed in transfected cells
T1 sequence (P32239 1-447): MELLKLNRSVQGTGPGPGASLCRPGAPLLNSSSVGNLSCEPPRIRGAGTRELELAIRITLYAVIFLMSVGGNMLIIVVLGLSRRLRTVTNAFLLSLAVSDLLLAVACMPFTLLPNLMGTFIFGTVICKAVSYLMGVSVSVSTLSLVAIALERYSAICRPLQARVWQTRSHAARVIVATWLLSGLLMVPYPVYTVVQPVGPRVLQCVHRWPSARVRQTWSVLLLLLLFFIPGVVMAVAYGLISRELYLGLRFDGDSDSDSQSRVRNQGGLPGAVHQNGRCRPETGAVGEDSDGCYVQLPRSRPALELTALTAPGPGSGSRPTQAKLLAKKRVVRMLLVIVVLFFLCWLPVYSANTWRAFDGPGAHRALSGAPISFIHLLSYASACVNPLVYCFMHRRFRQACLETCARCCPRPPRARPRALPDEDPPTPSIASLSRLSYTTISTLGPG
Kind of assay: Displacement of [125I]-BH-CCK-8S from human CCK2 receptors cloned into NIH3T3 cells (membranes). The note with it: hCCK2 receptor, NIH3T3 clone 7 membranes, [125I]-BH-CCK-8S 200 pM, 150 min at 21° C.; ± s.e. mean; read-out: CCK2 (pKI) (converted). In kind it is binding. The method, then: A number of compounds were tested at human gastrin (CCK2) receptors which have been cloned into an NIH3T3 cell line as follows:
Stable clones expressing hCCK2R were screened for their ability to specifically bind [^125I]-BH-CCK-8S in tissue concentration curve studies (0.3×10^4-1×10^6 cells per tube) using the assay conditions described below. […] In addition there was a direct linear correlation between the amount of specific bound label and the cell concentration up to and including 2.5×10^5 cells per ml. Based on the above, this clone was chosen for expansion and fall binding characterisation.
Cultured clone 7 cells were stored as frozen pellets at −70° C. until required. Cell pellets were thawed in CCK2 assay buffer ((mM): 10 Hepes; 130 NaCl; 5 MgCl2; 4.7 KCl; 1 EGTA (pH7.2 at 21° C.) with 0.125 g Bacitracin added to each litre), and homogenised using a Polytron (4×1 s). The resulting membrane preparation was centrifuged at 39,800 g for 15 min at 4° C. Each cell pellet was re-suspended in fresh buffer and re-centriflged as above. The final pellet was re-suspended by homogenisation (Teflon-in-glass), to the appropriate membrane concentration.
For saturation and competition studies, the cell membranes prepared as in step d (3×10^4 cells per 400 μl) were incubated for 150 min at 21° C. in a final volume of 0.5 ml with CCK2 assay buffer containing [^125I]-BH-CCK-8S (50 μl; 200 pM). Total and non-specific binding of [^125I]-BH-CCK-8S were defined, respectively using 50 μl of buffer and 50 μl of 10 μM YM022. The assays were terminated by rapid filtration through pre-soaked Whatman GF/B filters which were washed (3×3 ml) with ice-cold 50 mM Tris HCl (pH7.4 @ 4° C.). Filters were transferred to plastic gamma counter vials and bound radioactivity determined by counting (1 min) in a Clini-gamma counter.
The binding of [^125I]-BH-CCK-8S to the hCCK2 receptor isoform was saturable. […] Saturation data were analysed using the curve-fitting programmes, Radlig and Ligand.
A number of compounds of the invention as well as reference compounds were tested for their ability to displace [^125I]-BH-CCK-8S from the receptors prepared as above. Briefly, dilution and addition of test compounds, radioligand and cell membranes were performed using a Beckman Biomek 2000. The ability of compounds to inhibit the specific binding of to hCCK2 receptors was determined in triplicate over a range of concentrations at half-log intervals. Total and non-specific binding was determined for each compound. Each compound was tested in a minimum of three experiments. Competition data were fitted to the Hill equation using Graph-pad Prism software to obtain estimates of the IC50 (mid-point location parameter) and nH (mid-point slope parameter). Dissociation constants (KI) were determined using the Cheng & Prusoff equation (1973) to correct for the receptor occupancy by the radioligand. All compounds were dissolved in DMF to give a stock concentration of either 1 or 10 mM and subsequent dilutions were made in assay buffer.
On the technique in general: Loss of bound radioactivity is the signal in a displacement assay; it reports binding, not function.
For the compound `O=C(CN1NC(C2CCCCC2)c2ccccc2N(CC(=O)C2CCCC2)C1=O)Nc1cccc(-c2nc(=O)o[nH]2)c1` (racemic) [Example 16, (+/−)-2-[5-Cyclohexyl-1-(2-cyclopentyl-2-oxo-ethyl)-2-oxo-1,2,4,5-tetrahydro-3H-1,3,4-benzotriazepin-3-yl]-N-[3-(5-oxo-2,5-dihydro-[1,2,4]oxadiazol-3-yl)-phenyl]-acetamide], the Ki was 0.0794 nM.
As for `O=C(CN1NC(C2CCCCC2)c2ccccc2N(CC(=O)C2CCCC2)C1=O)Nc1cccc(C(=O)O)c1` (racemic) [Example 4, (+/−)-3-{2-[5-Cyclohexyl-1-(2-cyclopentyl-2-oxo-ethyl)-2-oxo-1,2,4,5-tetrahydro-3H-1,3,4-benzotriazepin-3-yl]-acetylamino}-benzoic acid], the figure is 1.48 nM; as for `O=C(CN1NC(C2CCCCC2)c2ccccc2N(CC(=O)C2CCCCC2)C1=O)Nc1cccc(C(=O)O)c1` (racemic) [Example 9, (+/−)-3-{2-[5-Cyclohexyl-1-(2-cyclohexyl-2-oxo-ethyl)-2-oxo-1,2,4,5-tetrahydro-3H-1,3,4-benzotriazepin-3-yl]-acetylamino}-benzoic acid], 2.24 nM.
Next, `CC1(C(=O)CN2C(=O)N(CC(=O)Nc3cccc(C(=O)O)c3)NC(C3CCCCC3)c3ccccc32)CCCCC1` (racemic) [Example 8, (+/−)-3-(2-{5-Cyclohexyl-1-[2-(1-methyl-cyclohexyl)-2-oxo-ethyl]-2-oxo-1,2,4,5-tetrahydro-3H-1,3,4-benzotriazepin-3-yl}-acetylamino)-benizoic acid]: 7.76 nM; `O=C(O)Cc1cccc(NC(=O)CN2NC(C3CCCCC3)c3ccccc3N(CC(=O)C3CCCCC3)C2=O)c1` (single isomer, unassigned; (+)) [Example 13, (+)-(3-{2-[5-Cyclohexyl-1-(2-cyclohexyl-2-oxo-ethyl)-2-oxo-1,2,4,5-tetrahydro-3H-1,3,4-benzotriazepin-3-yl]-acetylamino}-phenyl)-acetic acid]: 3.98 nM; `O=C(O)Cc1cccc(NC(=O)CN2NC(C3CCCCC3)c3ccccc3N(CC(=O)C3CCCCC3)C2=O)c1` (single isomer, unassigned; (-)) [Example 14, (−)-(3-{2-[5-Cyclohexyl-1-(2-cyclohexyl-2-oxo-ethyl)-2-oxo-1,2,4,5-tetrahydro-3H-1,3,4-benzotriazepin-3-yl]-acetylamino}-phenyl)-acetic acid]: 0.1 nM.
Next, `CNc1cccc(NC(=O)CN2NC(C3CCCCC3)c3ccccc3N(CC(=O)C(C)(C)C)C2=O)c1` (racemic) [Example 2, (+/−)-2-[5-Cyclohexyl-1-(3,3-dimethyl-2-oxo-butyl)-2-oxo-1,2,4,5-tetrahydro-3H-1,3,4-benzotriazepin-3-yl]-N-(3-methylamino-phenyl)-acetamide]: 16.2 nM; `O=C(O)Cc1cccc(NC(=O)CN2NC(C3CCCCC3)c3ccccc3N(CC(=O)C3CCCC3)C2=O)c1` (racemic) [Example 5, (+/−)-(3-{2-[5-Cyclohexyl-1-(2-cyclopentyl-2-oxo-ethyl)-2-oxo-1,2,4,5-tetrahydro-3H-1,3,4-benzotriazepin-3-yl]-acetylamino}-phenyl)-acetic acid]: 79.4 nM.
Take `CC(C)(C)C(=O)CN1C(=O)N(CC(=O)Nc2cccc(C(=O)O)c2)NC(C2CCCCC2)c2ccccc21` (racemic) [Example 1, (+/−)-3-{2-[5-Cyclohexyl-1-(3,3-dimethyl-2-oxo-butyl)-2-oxo-1,2,4,5-tetrahydro-3H-1,3,4-benzotriazepin-3-yl]-acetylamino)-benzoic acid]: the Ki is 17.8 nM.
Next, `O=C(CN1NC(C2CCCCC2)c2ccccc2N(CC(=O)C2CCCC2)C1=O)Nc1cccc(C(=O)O)c1` (single isomer, unassigned; (+)) [Example 11, (+)-3-{2-[5-Cyclohexyl-1-(2-cyclopentyl-2-oxo-ethyl)-2-oxo-1,2,4,5-tetrahydro-3H-1,3,4-benzotriazepin-3-yl]-acetylamino}-benzoic acid]: 12.6 nM; `O=C(O)Cc1cccc(NC(=O)CN2NC(C3CCCCC3)c3ccccc3N(CC(=O)C3CCCCC3)C2=O)c1` (racemic) [Example 10, (+/−)-(3-{2-[5-Cyclohexyl-1-(2-cyclohexyl-2-oxo-ethyl)-2-oxo-1,2,4,5-tetrahydro-3H-1,3,4-benzotriazepin-3-yl]-acetylamino}-phenyl)-acetic acid]: 0.363 nM; `O=C(CN1NC(C2CCCCC2)c2ccccc2N(CC(=O)C2CCCC2)C1=O)Nc1cccc(-c2nnn[nH]2)c1` (racemic) [Example 15, (+/−)2-[5-Cyclohexyl-1-(2-cyclopentyl-2-oxo-ethyl)-2-oxo-1,2,4,5-tetrahydro-3H-1,3,4-benzotriazepin-3-yl]-N-[3-(2H-tetrazol-5-yl)-phenyl]-acetamide]: 0.501 nM.
As to `O=C(CN1NC(C2CCCCC2)c2ccccc2N(CC(=O)C2CCCC2)C1=O)Nc1cccc(C(=O)O)c1` (single isomer, unassigned; (-)) [Example 12, (−)-3-{2-[5-Cyclohexyl-1-(2-cyclopentyl-2-oxo-ethyl)-2-oxo-1,2,4,5-tetrahydro-3H-1,3,4-benzotriazepin-3-yl]-acetylamino}-benzoic acid], the Ki is 1.58 nM.
Regarding `CNc1cccc(NC(=O)CN2NC(C3CCCCC3)c3ccccc3N(CC(=O)C3CCCC3)C2=O)c1` (racemic) [Example 7, (+/−)-2-[5-Cyclohexyl-1-(2-cyclopentyl-2-oxo-ethyl)-2-oxo-1,2,4,5-tetrahydro-3H-1,3,4-benzotriazepin-3-yl]-N-(3-methylamino-phenyl)-acetamide], the Ki is 2.63 nM.
As for `O=C(O)CCc1cccc(NC(=O)CN2NC(C3CCCCC3)c3ccccc3N(CC(=O)C3CCCC3)C2=O)c1` (racemic) [Example 6, (+/−)-3-(3-(2-[5-Cyclohexyl-1-(2-cyclopenlyl-2-oxo-ethyl)-2-oxo-1,2,4,5tetrahydro-3H-1,3,4-benzotriazepin-3-yl]-acetylamino}-phenyl)-propionic acid], the figure is 0.759 nM.
Next, `Cc1cccc(NC(=O)CN2NC(C3CCCCC3)c3ccccc3N(CC(=O)C(C)(C)C)C2=O)c1` (racemic) [Example 3, (+/−)-2-[5-Cyclohexyl-1-(3,3-dimethyl-2-oxo-butyl)-2-oxo-1,2,4,5-tetrahydro-3H-3H-1,3,4-benzotriazepin-3-yl]-N-m-tolyl-acetamide]: 44.7 nM.
